{"source": "paper PMC9481570", "about": "“A small molecule antagonist of SMN disrupts the interaction between SMN and RNAP II” (Nature Communications, 2022)", "assay_in_all_cases": "Affinity-purification and mass spectrometry (AP-MS) chemical proteomics, all proteins;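 as to Difference: 200 µM free competitor with 20 µM biotin probe overnight in lysate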", "type_in_all_cases": "binding", "key": {"[1]": {"biological_target": "T1, proteins displaced from immobilized biotin-Cmpd 1 pulldowns (U2OS cell lysate) (Homo sapiens, UniProt Q96DA0)", "T1 construct": "endogenous in cells; host or cells: U2OS", "T1 sequence (Q96DA0 17-172)": "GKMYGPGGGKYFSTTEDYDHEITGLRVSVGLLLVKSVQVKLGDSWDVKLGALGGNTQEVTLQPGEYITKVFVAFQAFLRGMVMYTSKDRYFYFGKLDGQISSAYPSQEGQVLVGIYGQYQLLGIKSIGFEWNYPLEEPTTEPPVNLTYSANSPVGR", "conditions": "GN=ZG16B (Q96DA0)"}, "[2]": {"biological_target": "T2, proteins displaced from immobilized biotin-Cmpd 1 pulldowns (U2OS cell lysate) (Homo sapiens, UniProt Q9NUQ6)", "T2 construct": "endogenous in cells; host or cells: U2OS", "T2 sequence (Q9NUQ6 whole entry)": "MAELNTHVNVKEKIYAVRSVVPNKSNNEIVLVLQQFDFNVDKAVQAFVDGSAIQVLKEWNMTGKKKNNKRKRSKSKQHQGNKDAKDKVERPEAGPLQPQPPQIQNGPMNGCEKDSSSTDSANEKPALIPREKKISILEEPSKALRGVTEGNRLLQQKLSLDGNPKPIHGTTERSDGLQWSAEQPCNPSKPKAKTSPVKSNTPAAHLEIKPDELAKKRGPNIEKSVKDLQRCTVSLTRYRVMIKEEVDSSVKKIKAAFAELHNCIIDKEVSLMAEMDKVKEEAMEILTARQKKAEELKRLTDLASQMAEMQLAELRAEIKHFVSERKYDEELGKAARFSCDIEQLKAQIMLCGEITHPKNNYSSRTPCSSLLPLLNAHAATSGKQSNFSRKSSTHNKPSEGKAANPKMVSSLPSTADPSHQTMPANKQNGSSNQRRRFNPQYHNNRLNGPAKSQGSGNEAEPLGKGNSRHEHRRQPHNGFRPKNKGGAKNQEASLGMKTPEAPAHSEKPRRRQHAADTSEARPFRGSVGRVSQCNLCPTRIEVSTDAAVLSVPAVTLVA", "conditions": "GN=SPATS2L (Q9NUQ6)"}, "[3]": {"biological_target": "T3, proteins displaced from immobilized biotin-Cmpd 1 pulldowns (U2OS cell lysate) (Homo sapiens, UniProt O75223)", "T3 construct": "endogenous in cells; host or cells: U2OS", "T3 sequence (O75223 whole entry)": "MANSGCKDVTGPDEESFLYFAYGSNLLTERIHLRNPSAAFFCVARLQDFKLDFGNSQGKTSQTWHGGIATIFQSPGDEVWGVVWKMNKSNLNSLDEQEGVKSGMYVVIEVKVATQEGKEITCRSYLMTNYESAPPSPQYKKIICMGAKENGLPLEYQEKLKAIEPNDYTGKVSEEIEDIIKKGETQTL", "conditions": "GN=GGCT (O75223)"}, "[4]": {"biological_target": "T4, proteins displaced from immobilized biotin-Cmpd 1 pulldowns (U2OS cell lysate) (Homo sapiens, UniProt Q7Z2W4)", "T4 construct": "endogenous in cells; host or cells: U2OS", "T4 sequence (Q7Z2W4 whole entry)": "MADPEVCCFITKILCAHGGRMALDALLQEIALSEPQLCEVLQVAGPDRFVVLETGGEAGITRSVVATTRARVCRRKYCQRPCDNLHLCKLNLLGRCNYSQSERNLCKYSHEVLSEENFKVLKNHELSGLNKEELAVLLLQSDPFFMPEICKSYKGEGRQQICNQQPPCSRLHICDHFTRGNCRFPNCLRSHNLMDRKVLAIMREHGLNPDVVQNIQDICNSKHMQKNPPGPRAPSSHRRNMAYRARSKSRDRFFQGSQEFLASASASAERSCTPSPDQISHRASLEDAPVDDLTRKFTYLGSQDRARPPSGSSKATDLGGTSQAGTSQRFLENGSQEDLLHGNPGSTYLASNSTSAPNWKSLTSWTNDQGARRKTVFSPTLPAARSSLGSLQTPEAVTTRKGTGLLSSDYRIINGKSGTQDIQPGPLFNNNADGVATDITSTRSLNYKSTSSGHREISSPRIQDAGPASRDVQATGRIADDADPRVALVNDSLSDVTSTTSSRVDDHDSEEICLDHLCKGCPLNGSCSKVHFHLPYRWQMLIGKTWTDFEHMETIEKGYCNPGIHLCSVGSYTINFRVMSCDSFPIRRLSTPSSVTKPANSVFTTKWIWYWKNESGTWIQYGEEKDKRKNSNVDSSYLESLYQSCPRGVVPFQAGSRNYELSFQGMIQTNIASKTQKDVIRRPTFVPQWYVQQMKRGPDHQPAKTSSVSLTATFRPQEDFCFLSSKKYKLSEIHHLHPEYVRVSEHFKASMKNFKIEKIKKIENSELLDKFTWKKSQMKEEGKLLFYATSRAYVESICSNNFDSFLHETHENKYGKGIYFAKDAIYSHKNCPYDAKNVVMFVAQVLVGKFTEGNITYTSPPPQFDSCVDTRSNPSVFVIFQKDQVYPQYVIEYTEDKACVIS", "conditions": "GN=ZC3HAV1 (Q7Z2W4)"}, "[5]": {"biological_target": "T5, proteins displaced from immobilized biotin-Cmpd 1 pulldowns (U2OS cell lysate) (Homo sapiens, UniProt Q9Y5B9)", "T5 construct": "endogenous in cells; host or cells: U2OS", "T5 sequence (Q9Y5B9 whole entry)": "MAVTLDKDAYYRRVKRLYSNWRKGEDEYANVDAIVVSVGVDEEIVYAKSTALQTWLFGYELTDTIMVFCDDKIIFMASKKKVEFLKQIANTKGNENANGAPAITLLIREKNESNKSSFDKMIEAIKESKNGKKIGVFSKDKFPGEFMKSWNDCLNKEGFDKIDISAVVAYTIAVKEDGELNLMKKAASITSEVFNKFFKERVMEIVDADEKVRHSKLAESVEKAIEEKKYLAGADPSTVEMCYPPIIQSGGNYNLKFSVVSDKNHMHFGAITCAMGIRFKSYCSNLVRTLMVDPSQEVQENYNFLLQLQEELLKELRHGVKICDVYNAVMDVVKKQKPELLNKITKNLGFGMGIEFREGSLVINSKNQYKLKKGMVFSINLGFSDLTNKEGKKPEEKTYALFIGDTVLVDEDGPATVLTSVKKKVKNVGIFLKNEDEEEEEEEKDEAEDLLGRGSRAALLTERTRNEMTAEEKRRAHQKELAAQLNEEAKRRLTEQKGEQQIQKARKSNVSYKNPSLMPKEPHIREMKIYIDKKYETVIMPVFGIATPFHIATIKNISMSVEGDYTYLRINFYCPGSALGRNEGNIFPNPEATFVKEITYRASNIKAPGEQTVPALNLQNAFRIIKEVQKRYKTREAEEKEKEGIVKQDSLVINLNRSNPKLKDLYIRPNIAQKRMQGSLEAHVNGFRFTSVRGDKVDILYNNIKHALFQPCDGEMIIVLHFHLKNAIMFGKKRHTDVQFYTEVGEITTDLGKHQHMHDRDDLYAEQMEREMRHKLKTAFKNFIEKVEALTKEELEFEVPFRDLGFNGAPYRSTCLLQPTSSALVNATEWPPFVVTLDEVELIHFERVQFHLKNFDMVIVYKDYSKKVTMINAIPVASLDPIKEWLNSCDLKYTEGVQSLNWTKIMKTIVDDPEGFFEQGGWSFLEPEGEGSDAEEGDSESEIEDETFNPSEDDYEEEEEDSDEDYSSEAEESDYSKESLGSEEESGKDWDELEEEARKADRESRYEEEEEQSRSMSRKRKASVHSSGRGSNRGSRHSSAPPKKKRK", "conditions": "GN=SUPT16H (Q9Y5B9)"}, "[6]": {"biological_target": "T6, proteins displaced from immobilized biotin-Cmpd 1 pulldowns (U2OS cell lysate) (Homo sapiens, UniProt Q7Z2W9)", "T6 construct": "endogenous in cells; host or cells: U2OS", "conditions": "GN=MRPL21 (Q7Z2W9)"}, "[7]": {"biological_target": "T7, proteins displaced from immobilized biotin-Cmpd 1 pulldowns (U2OS cell lysate) (Homo sapiens, UniProt P06493)", "T7 construct": "endogenous in cells; host or cells: U2OS", "T7 sequence (P06493 whole entry)": "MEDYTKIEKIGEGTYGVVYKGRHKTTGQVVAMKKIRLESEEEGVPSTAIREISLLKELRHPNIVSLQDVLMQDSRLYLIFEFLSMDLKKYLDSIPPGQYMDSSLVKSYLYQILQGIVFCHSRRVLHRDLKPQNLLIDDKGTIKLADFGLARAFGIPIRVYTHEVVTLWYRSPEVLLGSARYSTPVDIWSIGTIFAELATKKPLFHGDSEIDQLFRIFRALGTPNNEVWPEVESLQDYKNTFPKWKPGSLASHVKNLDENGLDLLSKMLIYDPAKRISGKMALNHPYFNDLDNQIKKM", "conditions": "GN=CDK1 (P06493)"}, "[8]": {"biological_target": "T8, proteins displaced from immobilized biotin-Cmpd 1 pulldowns (U2OS cell lysate) (Homo sapiens, UniProt Q9UI42)", "T8 construct": "endogenous in cells; host or cells: U2OS", "T8 sequence (Q9UI42 114-421)": "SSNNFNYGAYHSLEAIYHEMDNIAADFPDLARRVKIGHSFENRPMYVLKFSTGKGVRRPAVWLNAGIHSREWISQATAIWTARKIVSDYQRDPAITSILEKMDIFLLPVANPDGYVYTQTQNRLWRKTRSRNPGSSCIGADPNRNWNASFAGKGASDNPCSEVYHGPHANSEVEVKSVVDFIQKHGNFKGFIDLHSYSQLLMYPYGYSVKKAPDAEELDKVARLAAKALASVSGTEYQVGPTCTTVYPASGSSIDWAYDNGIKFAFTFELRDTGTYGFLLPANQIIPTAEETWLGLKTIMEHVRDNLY", "conditions": "GN=CPA4 (Q9UI42)"}, "[9]": {"biological_target": "T9, proteins displaced from immobilized biotin-Cmpd 1 pulldowns (U2OS cell lysate) (Homo sapiens, UniProt P09211)", "T9 construct": "endogenous in cells; host or cells: U2OS", "T9 sequence (P09211 whole entry)": "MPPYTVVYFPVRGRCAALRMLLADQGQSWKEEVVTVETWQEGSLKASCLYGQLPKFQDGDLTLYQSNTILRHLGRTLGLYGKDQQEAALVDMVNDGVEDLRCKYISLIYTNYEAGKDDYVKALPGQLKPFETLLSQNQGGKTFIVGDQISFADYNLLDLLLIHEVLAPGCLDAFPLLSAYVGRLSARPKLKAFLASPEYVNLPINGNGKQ", "conditions": "GN=GSTP1 (P09211)"}, "[10]": {"biological_target": "T10, proteins displaced from immobilized biotin-Cmpd 1 pulldowns (U2OS cell lysate) (Homo sapiens, UniProt Q13601)", "T10 construct": "endogenous in cells; host or cells: U2OS", "T10 sequence (Q13601 whole entry)": "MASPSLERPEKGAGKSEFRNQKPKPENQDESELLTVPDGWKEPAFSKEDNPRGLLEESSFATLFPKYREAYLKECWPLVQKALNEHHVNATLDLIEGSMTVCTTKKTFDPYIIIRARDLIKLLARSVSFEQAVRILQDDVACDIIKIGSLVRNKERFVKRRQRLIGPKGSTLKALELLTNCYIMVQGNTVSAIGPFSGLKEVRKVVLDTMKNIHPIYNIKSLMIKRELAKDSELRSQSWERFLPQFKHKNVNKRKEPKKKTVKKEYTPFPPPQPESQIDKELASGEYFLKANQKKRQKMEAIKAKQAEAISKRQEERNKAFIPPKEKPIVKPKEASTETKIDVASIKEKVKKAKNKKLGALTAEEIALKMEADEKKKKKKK", "conditions": "GN=KRR1 (Q13601)"}}, "note": "Values joined by “and” are separate entries in the source; they are usually repeats but may differ in a detail not shown here. Equal values may be shown once."}
{"smiles": "Cn1c2c(c(=N)c3c1CCC3)CCC2", "note": "[Compound 1, 4-methyl-2,3,4,5,6,7-hexahydrodicyclopenta[b,e]pyridin-8(1H)-imine]", "values": [{"measurement": "Difference", "setting": "[1]; Cmpd minus DMSO, -LOG(P-value) 1.41535", "result": -4.273}, {"measurement": "iBAQ Cmpd", "setting": "[1]; replicates 1-3", "result": "15.4223 and 14.7351 and 17.7658"}, {"measurement": "Difference", "setting": "[2]; Cmpd minus DMSO, -LOG(P-value) 0.875271", "result": 3.1666}, {"measurement": "iBAQ Cmpd", "setting": "[2]; replicates 1-3", "result": "21.4367 and 18.8839 and 18.3449"}, {"measurement": "Difference", "setting": "[3]; Cmpd minus DMSO, -LOG(P-value) 0.708043", "result": -1.888}, {"measurement": "iBAQ Cmpd", "setting": "[3]; replicates 1-3", "result": "19.1406 and 20.1765 and 18.5823"}, {"measurement": "Difference", "setting": "[4]; Cmpd minus DMSO, -LOG(P-value) 1.54428", "result": 1.228}, {"measurement": "iBAQ Cmpd", "setting": "[4]; replicates 1-3", "result": "18.1805 and 17.0719 and 17.7662"}, {"measurement": "Difference", "setting": "[5]; Cmpd minus DMSO, -LOG(P-value) 1.35125", "result": 1.168}, {"measurement": "iBAQ Cmpd", "setting": "[5]; replicates 1-3", "result": "20.1986 and 19.3251 and 19.6735"}, {"measurement": "Difference", "setting": "[6]; Cmpd minus DMSO, -LOG(P-value) 0.745191", "result": 1.429}, {"measurement": "iBAQ Cmpd", "setting": "[6]; replicates 1-3", "result": "17.7953 and 15.5869 and 17.7004"}, {"measurement": "Difference", "setting": "[7]; Cmpd minus DMSO, -LOG(P-value) 0.868994", "result": -0.7208}, {"measurement": "iBAQ Cmpd", "setting": "[7]; replicates 1-3", "result": "20.3513 and 19.7871 and 19.2381"}, {"measurement": "Difference", "setting": "[8]; Cmpd minus DMSO, -LOG(P-value) 1.07291", "result": -1.567}, {"measurement": "iBAQ Cmpd", "setting": "[8]; replicates 1-3", "result": "17.2042 and 16.9875 and 16.0895"}, {"measurement": "Difference", "setting": "[9]; Cmpd minus DMSO, -LOG(P-value) 0.706691", "result": -2.301}, {"measurement": "iBAQ Cmpd", "setting": "[9]; replicates 1-3", "result": "19.2888 and 14.7277 and 18.6327"}, {"measurement": "Difference", "setting": "[10]; Cmpd minus DMSO, -LOG(P-value) 0.80089", "result": 1.298}, {"measurement": "iBAQ Cmpd", "setting": "[10]; replicates 1-3", "result": "17.9419 and 17.334 and 17.0379"}]}
